According to PubChem BioAssay AID2060622 (Molecular Pharmacology Branch, DTP, NCI, 2025):

System: 242566-281-R-J2-PDC complex spheroid viability
Assay: Anticancer human tumor 242566-281-R-J2-PDC patient-derived pancreatic carcinoma cell line growth inhibition [CLK]
Details: for IC50: curve of first compound; for viability, T/C: stronger effect = lower value
In short: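 Multi-cell-type spheroids combined patient-derived tumor cells with HUVEC endothelial cells and human mesenchymal stem cells. Paired agents were dosed in half-log steps down from about clinical Cmax, or from 10 microM where Cmax was unknown.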

[1] = second compound 0.0316 µM, first compound 0.0316 µM
[2] = second compound 0.0316 µM, first compound 0.1 µM
[3] = second compound 0.0316 µM, first compound 0.316 µM
[4] = second compound 0.0316 µM, first compound 1 µM
[5] = second compound 0.0316 µM, first compound 3.16 µM
[6] = second compound 0.0316 µM, first compound 10 µM
[7] = second compound 0.1 µM, first compound 0.0316 µM
[8] = second compound 0.1 µM, first compound 0.1 µM
[9] = second compound 0.1 µM, first compound 0.316 µM
[10] = second compound 0.1 µM, first compound 1 µM
[11] = second compound 0.1 µM, first compound 3.16 µM
[12] = second compound 0.1 µM, first compound 10 µM
[13] = second compound 0.316 µM, first compound 0.0316 µM
[14] = second compound 0.316 µM, first compound 0.1 µM
[15] = second compound 0.316 µM, first compound 0.316 µM
[16] = second compound 0.316 µM, first compound 1 µM
[17] = second compound 0.316 µM, first compound 3.16 µM
[18] = second compound 0.316 µM, first compound 10 µM
[19] = second compound 1 µM, first compound 0.0316 µM
[20] = second compound 1 µM, first compound 0.1 µM
[21] = second compound 1 µM, first compound 0.316 µM
[22] = second compound 1 µM, first compound 1 µM
[23] = second compound 1 µM, first compound 3.16 µM
[24] = second compound 1 µM, first compound 10 µM
[25] = second compound 3.16 µM, first compound 0.0316 µM
[26] = second compound 3.16 µM, first compound 0.1 µM
[27] = second compound 3.16 µM, first compound 0.316 µM
[28] = second compound 3.16 µM, first compound 1 µM
[29] = second compound 3.16 µM, first compound 3.16 µM
[30] = second compound 3.16 µM, first compound 10 µM
[31] = second compound 10 µM, first compound 0.0316 µM
[32] = second compound 10 µM, first compound 0.1 µM
[33] = second compound 10 µM, first compound 0.316 µM
[34] = second compound 10 µM, first compound 1 µM
[35] = second compound 10 µM, first compound 3.16 µM
[36] = second compound 10 µM, first compound 10 µM
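Also: spheroids exposed to compounds for 7 days before readout.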
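For viability, T/C in this document: 100% = DMSO vehicle control wells.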

In the case of `CC(=O)O[C@H]1C(=O)[C@@]2(C)[C@H]([C@H](OC(=O)c3ccccc3)[C@]3(O)C[C@H](OC(=O)[C@H](O)[C@@H](NC(=O)c4ccccc4)c4ccccc4)C(C)=C1C3(C)C)[C@]1(OC(C)=O)CO[C@@H]1C[C@@H]2O` + CN1CCN(c2cc(C(=O)Nc3cc4cc(-c5cnn(C)c5)ccc4cn3)ccn2)CC1, the IC50 (second compound 0.0316 µM) is reported as under 31.6 nM, the IC50 (second compound 0.1 µM) is reported as under 31.6 nM and the IC50 (second compound 0.316 µM) is reported as under 31.6 nM. The IC50 (second compound 1 µM) was under 31.6 nM, the IC50 (second compound 3.16 µM) was under 31.6 nM and the IC50 (second compound 10 µM) was under 31.6 nM. The viability, T/C [1] was 37%, the viability, T/C [2] was 33.4% and the viability, T/C [3] was 28.9%. It also gave a viability, T/C [4] of 26.7%, a viability, T/C [5] of 32.2% and a viability, T/C [6] of 34.8%. The viability, T/C [7] was 43.7%, the viability, T/C [8] was 29.1% and the viability, T/C [9] was 27.7%. For the same compound, the viability, T/C [10] was 25.2%, the viability, T/C [11] was 29.1% and the viability, T/C [12] was 28.6%. It also gave a viability, T/C [13] of 15.9%, a viability, T/C [14] of 15.5% and a viability, T/C [15] of 15.1%. The viability, T/C [16] was 17.2%, the viability, T/C [17] was 25% and the viability, T/C [18] was 31.3%. It also gave a viability, T/C [19] of 5.85%, a viability, T/C [20] of 4.53% and a viability, T/C [21] of 5.01%. The viability, T/C [22] was 4.32%, the viability, T/C [23] was 5.32% and the viability, T/C [24] was 5.54%. The viability, T/C [25] was 7.09%, the viability, T/C [26] was 7.07% and the viability, T/C [27] was 7.24%. It also gave a viability, T/C [28] of 7.25%, a viability, T/C [29] of 7.67% and a viability, T/C [30] of 7.22%. The viability, T/C [31] was 1.45%, the viability, T/C [32] was 1.31% and the viability, T/C [33] was 1%. For the same compound, the viability, T/C [34] was 1.28%, the viability, T/C [35] was 1.57% and the viability, T/C [36] was 1.05%.

In the case of `CCc1c2c(nc3ccc(O)cc13)-c1cc3c(c(=O)n1C2)COC(=O)[C@]3(O)CC` + CN1CCN(c2cc(C(=O)Nc3cc4cc(-c5cnn(C)c5)ccc4cn3)ccn2)CC1, the IC50 (second compound 0.0316 µM) is reported as 8.95 nM, the IC50 (second compound 0.1 µM) is reported as 4.12 nM and the IC50 (second compound 0.316 µM) is reported as under 3.16 nM. For the same compound, the IC50 (second compound 1 µM) was under 3.16 nM, the IC50 (second compound 3.16 µM) was under 3.16 nM and the IC50 (second compound 10 µM) was under 3.16 nM. It also gave a viability, T/C (second compound 0.0316 µM, first compound 0.00316 µM) of 75.4%, a viability, T/C (second compound 0.0316 µM, first compound 0.01 µM) of 47.6% and a viability, T/C [1] of 17.3%. It also gave a viability, T/C [2] of 8.08%, a viability, T/C [3] of 4.41% and a viability, T/C [4] of 2.2%. For the same compound, the viability, T/C (second compound 0.1 µM, first compound 0.00316 µM) was 57%, the viability, T/C (second compound 0.1 µM, first compound 0.01 µM) was 26.9% and the viability, T/C [7] was 9.57%. It also gave a viability, T/C [8] of 5.51%, a viability, T/C [9] of 3.73% and a viability, T/C [10] of 1.87%. It also gave a viability, T/C (second compound 0.316 µM, first compound 0.00316 µM) of 13.3%, a viability, T/C (second compound 0.316 µM, first compound 0.01 µM) of 7.58% and a viability, T/C [13] of 4.52%. It also gave a viability, T/C [14] of 2.86%, a viability, T/C [15] of 1.79% and a viability, T/C [16] of 1.15%. For the same compound, the viability, T/C (second compound 1 µM, first compound 0.00316 µM) was 3.62%, the viability, T/C (second compound 1 µM, first compound 0.01 µM) was 3.2% and the viability, T/C [19] was 2.53%. It also gave a viability, T/C [20] of 2.3%, a viability, T/C [21] of 1.39% and a viability, T/C [22] of 1.39%. The viability, T/C (second compound 3.16 µM, first compound 0.00316 µM) was 5.73%, the viability, T/C (second compound 3.16 µM, first compound 0.01 µM) was 5.04% and the viability, T/C [25] was 3.5%. It also gave a viability, T/C [26] of 3.24%, a viability, T/C [27] of 2.82% and a viability, T/C [28] of 1.82%. The viability, T/C (second compound 10 µM, first compound 0.00316 µM) was 1.17%, the viability, T/C (second compound 10 µM, first compound 0.01 µM) was 0.88% and the viability, T/C [31] was 0.45%. For the same compound, the viability, T/C [32] was 0.5%, the viability, T/C [33] was 0.49% and the viability, T/C [34] was 0.31%.

`COc1cccc2c1C(=O)c1c(O)c3c(c(O)c1C2=O)CC(O)(C(=O)CO)CC3OC1CC(N)C(O)C(C)O1` (stereo unspecified) + CN1CCN(c2cc(C(=O)Nc3cc4cc(-c5cnn(C)c5)ccc4cn3)ccn2)CC1 gave an IC50 (second compound 0.0316 µM) of 55 nM, an IC50 (second compound 0.1 µM) of 50 nM and an IC50 (second compound 0.316 µM) of under 31.6 nM. For the same compound, the IC50 (second compound 1 µM) was under 31.6 nM, the IC50 (second compound 3.16 µM) was under 31.6 nM and the IC50 (second compound 10 µM) was under 31.6 nM. The viability, T/C [1] was 67%, the viability, T/C [2] was 31.7% and the viability, T/C [3] was 8.7%. The viability, T/C [4] was 4.2%, the viability, T/C [5] was 1.44% and the viability, T/C [6] was 2.53%. It also gave a viability, T/C [7] of 66.5%, a viability, T/C [8] of 25.1% and a viability, T/C [9] of 5.6%. The viability, T/C [10] was 2.26%, the viability, T/C [11] was 1.22% and the viability, T/C [12] was 1.37%. The viability, T/C [13] was 26.1%, the viability, T/C [14] was 7.56% and the viability, T/C [15] was 1.25%. The viability, T/C [16] was 1.1%, the viability, T/C [17] was 1.58% and the viability, T/C [18] was 1.58%. It also gave a viability, T/C [19] of 4.67%, a viability, T/C [20] of 4.62% and a viability, T/C [21] of 2.83%. The viability, T/C [22] was 3.28%, the viability, T/C [23] was 2.48% and the viability, T/C [24] was 2.27%. The viability, T/C [25] was 6.53%, the viability, T/C [26] was 5.78% and the viability, T/C [27] was 5.19%. The viability, T/C [28] was 3.29%, the viability, T/C [29] was 2.58% and the viability, T/C [30] was 1.42%. It also gave a viability, T/C [31] of 1.13%, a viability, T/C [32] of 1.22% and a viability, T/C [33] of 0.74%. It also gave a viability, T/C [34] of 0.66%, a viability, T/C [35] of 0.57% and a viability, T/C [36] of 0.17%.
